For 1 molecule, EC50 results are on record in BindingDB's records for patent US10508104 (Bristol Myers Squibb, 2019).

For the assay, the target named is T1, Apelin receptor (Homo sapiens, UniProt P35414).
T1 sequence (P35414 whole entry): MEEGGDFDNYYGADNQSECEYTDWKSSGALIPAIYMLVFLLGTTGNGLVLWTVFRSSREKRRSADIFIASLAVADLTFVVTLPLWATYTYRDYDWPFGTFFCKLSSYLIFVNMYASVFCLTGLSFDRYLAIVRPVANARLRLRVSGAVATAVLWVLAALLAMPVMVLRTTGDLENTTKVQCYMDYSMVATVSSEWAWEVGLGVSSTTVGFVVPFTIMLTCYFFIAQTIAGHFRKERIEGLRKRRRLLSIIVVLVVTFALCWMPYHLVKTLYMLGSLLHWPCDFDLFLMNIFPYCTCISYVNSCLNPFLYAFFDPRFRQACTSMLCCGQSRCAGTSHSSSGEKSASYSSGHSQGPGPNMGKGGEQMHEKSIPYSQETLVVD
Nature of the assay: Intracellular cAMP Accumulation Assay. The procedure: HEK293 cells stably expressing human APJ receptor were used to assess the activity of compounds. Cultured cells were detached and resuspended in the cAMP Homogeneous Time-Resolved Fluorescence (HTRF) assay buffer (Cisbio cat; #62AM4PEJ). […] Serial dilutions of a compound together with assay buffer containing […] and 2 μM forskolin were added to each well containing 5,000 cells and incubated for 30 minutes at room temperature. Subsequently, cAMP D2 reagent was added in the lysis buffer followed by the EuK antibody (Cisbio; cat #62AM4PEJ) and incubated for 60 min. The fluorescence emission ratio was measured using fluorometer. The intracellular cAMP concentrations (compound-stimulated inhibition of forskolin-mediated cAMP production) were calculated by extrapolation from a standard curve using known cAMP concentrations. The EC50 values were obtained by fitting the data to a sigmoidal concentration-response curve with variable slope.

Structures are written as SMILES.

By EC50 is commonly meant the concentration needed to bring the measured effect to its halfway point. The low end stands for greater potency, the high end for weaker potency. As for `CCCCC1NC(=O)C(S(=O)(=O)c2ccc(-c3ccnc(F)c3C)cc2)=C(O)N1[C@@H](CC)c1cccc(OC)c1` (stereo partly specified) [US10508104, Example 169], the EC50 result is “in the range around 5 nM”.
